In patent US6734310B2, “Fluorescent marker” (FEW Chemicals GmbH, priority 2000, dated 2004):

Columns and labels:
[1] = VIS spectra of dye after coupling to a protein (aggregation in the protein conjugate); settings: FIG. 1
[2] = protein conjugate vs free dye; cited from earlier work

| SMILES | VIS spectrum curve shape (monomer / dimer band) [1] | decrease of fluorescence quantum yield of the protein conjugate compared with free, unconjugated dye [2] |
| --- | --- | --- |
| CC(C=CC1=[N+](CCCCCC(=O)O)c2ccc(S(=O)(=O)[O-])cc2C1(C)C)=CC=C1N(CCCCCC(=O)O)c2ccc(S(=O)(=O)[O-])cc2C1(C)C.[Na+] [Example 1, 1-(5-carboxypentyl)-2-[5-(l-(5-carboxypentyl)-1,3-dihydro-3,3-dimethyl-5-sulpho-2H-indole-2-ylidene)-3-methylpenta-1,3-dienyl]-3,3-dimethyl-5-sulpho-3H-indolium-inner Salt, Sodium Salt] | typical curve shape for a monomer | – |
| CC(C=CC1=[N+](CCCCCC(=O)O)c2ccc(S(=O)(=O)[O-])cc2C1(C)C)=C1N(CCCCCC(=O)O)c2ccc(S(=O)(=O)[O-])cc2C1(C)C.[Na+] [Example 3, 1-(5-carboxypentyl)-2-[3-(1,3-dihydro-1-(5-carboxypentyl)-3,3-dimethyl-5-sulpho-2H-indole-2-ylidene)-3-methylprop-1-enyl]-3,3-dimethyl-5-sulpho-3H-indolium Hydroxide, Inner Salt, Sodium Salt] | – | around ¼ |
